In a melting point compilation (Tetko et al.; mined from patent text by program, amines drawn as free bases though some values may be those of a salt):

SMILES	melting point
Cn1cc([N+](=O)[O-])c(C(=O)NC2CCCC2)n1	176 to 177 °C
COc1ccc(OP(Oc2ccc(OC)cc2C(C)(C)C)Oc2ccc(OC)cc2C(C)(C)C)c(C(C)(C)C)c1	82 to 86 °C
CC(C)(C)OC(=O)c1sc(Nc2ccccc2)c2c1CCc1cnoc1-2	148 to 149 °C
CN1C(=O)c2ccc(CBr)cc2S1(=O)=O	153 to 154 °C
CCCCCCCC(=O)N(C)Cc1cccc(-c2ccc(CCC(=O)O)s2)c1	67 to 68 °C
CC(C)(C)c1ccc(C=O)cc1NC(=O)CC1c2ccccc2Oc2ccccc21	172 to 174 °C
OC(CNc1ccccc1)c1cc(C(F)(F)F)nc2c(C(F)(F)F)cccc12 (stereo not drawn)	121 to 122 °C
C=CCC1(CC)C(=O)NC(=O)NC1=O	157 to 159 °C
c1cnc2cc3c(cc2n1)CCNCC3	114 to 116 °C
CCc1c(NC(=O)c2ccc(Br)cc2)ccc2cc(CN3CCCC3)cnc12	230 to 231 °C
COc1c(Nc2ncc(Cl)c(N[C@H]3[C@@H](C(N)=O)[C@@H]4C=C[C@H]3C4)n2)ccc2c1CC(N1CCOCC1)CCC2 (stereo partly drawn)	139 to 148 °C
c1ccc2c(CCN=c3sc4ccccc4s3)c[nH]c2c1	149 to 150 °C
CC1=C(C(=O)OCCOC(C)C)C(c2cccc(Cl)c2Cl)C(c2nnco2)=C(C)N1 (stereo not drawn)	151 to 154 °C
COC(=O)c1ncnn1Cc1ccc([N+](=O)[O-])cc1	126 to 130 °C
CCOC(=O)NN=COC(CC)NC (stereo not drawn)	104 °C
CCOC(=O)c1ccc(-c2ccc(OC)cc2)cc1	103 to 104 °C
CC1=C(C(=O)CS(=O)(=O)NC(C)C)C(c2cccc([N+](=O)[O-])c2)C(C(=O)OC(C)C)=C(C)N1C (stereo not drawn)	67 to 69 °C
CC(=O)Nc1cc(C)cc(N)c1	123 °C
COc1ccc(C(=O)Nc2ccccc2)cc1NCc1ccc(O)c([N+](=O)[O-])c1	175 to 176 °C
CC(=O)C1CCC2C3CCC4CC(O)C(N5CCOC(C)(C)C5)CC4(C)C3C(O)CC12C (stereo not drawn)	182 to 185 °C
O=c1ccoc(C(O)c2cccnc2)c1O (stereo not drawn)	176 to 180 °C
CC1=C(/C=C/C(C)=C/CO)C(C)(C)CC(O)C1=O (stereo not drawn)	85 to 86 °C
NNc1ccc(C(F)(F)F)c(Cl)c1Cl	79 to 80 °C
Cc1cc(-n2nc(C#N)cc2-c2ccc(S(C)(=O)=O)cc2)ccc1Cl	163 to 164 °C

SMILES	melting point
COc1ccc2cccc(CC#N)c2c1	83 °C
CC(=O)C(C)(O)C1(C)OC(C)=CC1=O (stereo not drawn)	95 to 96 °C
COc1ccc2nc(COc3cccc(C(=O)Nc4cc(CCCS(=O)(=O)c5ccc(Cl)cc5)ccc4OCC(=O)O)c3)sc2c1	187 to 189 °C
CCOC(=O)C(=CNc1ccc(F)c(F)c1OCC(C)O)C(=O)OCC (stereo not drawn)	52 to 55 °C
Cc1cc(O)n2nc(S(=O)(=O)Nc3c(Cl)ccc(C)c3Cl)nc2n1	346 to 347 °C
COc1ccccc1-n1c(-c2cc(-c3ccc(S(C)(=O)=O)cc3)c(N3CCOCC3)s2)nc2ccccc2c1=O	222 to 223 °C
CCCCc1nc2cccnc2n1-c1ccc(OCc2ccc(OC)c(OC3CC4CCC3C4)c2)cc1 (stereo not drawn)	130 to 132 °C
O=c1ncc(C(F)(F)F)cn1COCc1ccc(Cl)cc1	120 °C
CC(=O)C=Cc1ccccc1O	136 to 137 °C
NC(=O)c1csc(-c2cccc(N)c2)n1	173 to 174 °C
COc1ccc(C(=O)Oc2cc(OCCO/N=C/c3ccc(C(C)(C)C)cc3)ccc2C(=O)O)cc1	116 to 118 °C
COc1ccc(Cc2sc3ccccc3c2-c2ccc(-c3ccc(OC(Cc4ccccc4)C(=O)O)cc3)cc2)cc1OC (stereo not drawn)	59 to 61 °C
CC(=O)N(Cc1ccccc1)c1c(F)c(F)cc(F)c1C(=O)O	150 to 153 °C
CCOC(=O)C1CNc2cc(NS(C)(=O)=O)ccc2O1 (stereo not drawn)	149 to 151 °C
COc1ccccc1COc1ccc(S(=O)(=O)c2ccc(C)nc2Nc2cc(OC)c(OC)cc2Cl)cc1	149 to 151 °C
Cc1nc2ccccn2c(=O)c1CCN1CCC(=C(c2ccc(F)cc2)c2ccc(F)cc2)CC1	109 °C
O=C1C(=O)N(CCN2CCN(Cc3ccc(F)cc3)CC2)c2ccccc21	146 to 147 °C
CCCc1nn(Cc2ccc(OCc3nc(-c4ccccc4)oc3C)cc2)cc1CCC(=O)O	153 to 154 °C
CC(C)NC(=O)NOCc1nc2c(N)nc3ccccc3c2n1CC(C)(C)O	231 to 233 °C
Cc1n[nH]c2c(C(=O)NC3(C4CC4)CC3)c(NC(=O)c3cc(C(F)(F)F)nn3-c3ncccc3Cl)c(Cl)cc12	228 to 229 °C
CCc1nc2cc(NC)c(Cl)cc2n1-c1ccc(CCNC(=O)NS(=O)(=O)c2ccc(C)cc2)cc1	95 to 100 °C
CCCc1c(OCCCOc2ccc(Sc3ccccc3CC(=O)O)cc2)ccc(C(C)=O)c1O	123 to 124 °C
COc1cccc(Nc2nc(-n3nc(C)cc3C)nc3ccccc23)c1	193 to 195 °C
CCOc1c([N+](=O)[O-])cnn1-c1c(Cl)cc(C(F)(F)F)cc1Cl	84 to 86 °C
